Structures are written as SMILES. Like-named read-outs stand apart in the source and are kept apart here. Marks after values point to notes of the source that are not given here.

The values that follow come from patent US7691862B2, “Method and composition for treating periodontal disease” (Regena Therapeutics LC, priority 2003, dated 2010).

Data set [1] concerns mammalian calvarial cells. Conditions: in vitro culture; cited from earlier work.
Data set [2] deals with canine mandible alveolar bone. Conditions: cited from earlier work.
Data set [3] has as its system periodontal pockets of patients with moderate-to-advanced periodontitis. Briefly: Randomized double-blind placebo-controlled study: change in periodontal pocket probing depth after scaling, root planing and curettage. It counts as in vivo, human. The procedure:
1.1 Overall Study Design and Plan This was a randomized, double-blind, single-center, multiple-dose, parallel-group, placebo-controlled study. At baseline, patients presenting at Periodontal Specialists of Ames for the treatment of periodontitis were screened for the study. Patients were assessed using medical histories, dental histories, blood pressure, pulse, pregnancy tests (if female), periapical radiographs and periodontal examinations. Patients who met all of the inclusion and exclusion criteria, appeared in good health other than periodontitis, and who had documented moderate-to-advanced periodontitis with at least four destructive periodontal-diseased pockets (ranging from 5 to 12 mm in depth) were eligible for study participation. Each patient underwent a gross debridement, following which, he/she was randomized to one of four treatment groups:
Patients randomized to receive doxycycline (Groups B and C) were administered a loading dose of doxycycline 100 mg BID for one day and then instructed to take doxycycline 100 mg QD for nine consecutive days; patients in Groups A and D received matching doxycycline placebo for ten days.
On the last day of doxycycline/placebo administration, patients reported to the clinical research facility and underwent (under local anesthesia) dental sub-gingival scaling, root planing, and curettage on one side of the mouth. Following completion of these procedures, patients randomized to misoprostol (Groups C and D) received an application of a misoprostol paste (10 ug/site) and those randomized to placebo (Groups A and B) received placebo paste. Patients were instructed to apply the paste to each quadrant four times daily for the next week. One week later, patients returned to the clinical research facility and underwent sub-gingival scaling, root planing, and curettage on the other side of the mouth. The misoprostol/placebo paste was administered as described above. Patients were instructed to apply the paste to the affected teeth four times daily for an additional six weeks. They were also instructed to the proper use of the rubber tip for six weeks.
At two weeks post-treatment, patients were contacted for adverse event monitoring and compliance with study drug administration. Six weeks following the second sub-gingival scaling, planing, and curettage procedure, patients returned to the clinical research facility for periodontal and adverse event assessments. Dental prophylaxis, including periodontal maintenance was repeated at the three month intervals, with final assessments performed at 52 weeks post-treatment.
The initial dose of the misoprostol/placebo paste was applied by the periodontist, and all subsequent doses were applied by the patient. Each affected tooth was wiped with a 2×2 sponge to dry the tissue. Then 0.2 ml of the paste was dispensed from the 10.0 ml syringe onto the tip of the finger and applied to each affected tooth. The patient then sipped a little water and gently flushed the paste to gel it. Patients were instructed not to eat anything for at least one hour.
1.5.1.2.1. Periodontal Pocket Probing Depth Periodontal probing depths were measured at baseline, at six weeks post-treatment, and at 3, 6, 9 and 12 months post-treatment. More recently, a larger study at three weeks post treatment was performed as described in Example
To measure the periodontal pocket probing depth, a manual University of Michigan off-set probe marked in millimeters was inserted into the pocket with the long axis parallel to the long axis of the tooth. Insertion was continued to the base of the pocket with gentle pressure until a distinct resistance was felt.
The measurement from the tip of the probe to the gingival margin (GM-BP, gingival margin to the base of the pocket) was recorded in millimeters. On measurements of proximal sites the gingival margin may cross the probe at an angle, and the highest point on the side of the probe was read. […]

Data set [4] has as its target albumin (Homo sapiens, UniProt P02768). Conditions: cited from earlier work.
The conditions of data set [5]: in vivo; cited from earlier work.
The conditions of data set [6]: cited from earlier work.
The mark [7] stands for this setting: 6 Weeks post-treatment, baseline pocket depth 5 mm.
The mark [8] stands for this setting: 6 Weeks post-treatment, baseline pocket depth 6 mm.
Where [9] appears, read: 6 Weeks post-treatment, baseline pocket depth 7 mm.
The mark [10] stands for this setting: 6 Weeks post-treatment, baseline pocket depth 8 mm.
Setting [11] is: 6 Weeks post-treatment, baseline pocket depth 9 mm.
Where [12] appears, read: 6 Weeks post-treatment, baseline pocket depth 10 mm.
Where [13] appears, read: 6 Weeks post-treatment, baseline pocket depth ≦4 mm.
Setting [14] is: 52 Weeks post-treatment, baseline pocket depth 5 mm.
Setting [15] is: 52 Weeks post-treatment, baseline pocket depth 6 mm.
The mark [16] stands for this setting: 52 Weeks post-treatment, baseline pocket depth 7 mm.
The mark [17] stands for this setting: 52 Weeks post-treatment, baseline pocket depth 8 mm.
[18] abbreviates: 52 Weeks post-treatment, baseline pocket depth 9 mm.
The mark [19] stands for this setting: 52 Weeks post-treatment, baseline pocket depth 10 mm.
The mark [20] stands for this setting: 52 Weeks post-treatment, baseline pocket depth ≦4 mm.

albumin, sequence (P02768 25-609, species assumed): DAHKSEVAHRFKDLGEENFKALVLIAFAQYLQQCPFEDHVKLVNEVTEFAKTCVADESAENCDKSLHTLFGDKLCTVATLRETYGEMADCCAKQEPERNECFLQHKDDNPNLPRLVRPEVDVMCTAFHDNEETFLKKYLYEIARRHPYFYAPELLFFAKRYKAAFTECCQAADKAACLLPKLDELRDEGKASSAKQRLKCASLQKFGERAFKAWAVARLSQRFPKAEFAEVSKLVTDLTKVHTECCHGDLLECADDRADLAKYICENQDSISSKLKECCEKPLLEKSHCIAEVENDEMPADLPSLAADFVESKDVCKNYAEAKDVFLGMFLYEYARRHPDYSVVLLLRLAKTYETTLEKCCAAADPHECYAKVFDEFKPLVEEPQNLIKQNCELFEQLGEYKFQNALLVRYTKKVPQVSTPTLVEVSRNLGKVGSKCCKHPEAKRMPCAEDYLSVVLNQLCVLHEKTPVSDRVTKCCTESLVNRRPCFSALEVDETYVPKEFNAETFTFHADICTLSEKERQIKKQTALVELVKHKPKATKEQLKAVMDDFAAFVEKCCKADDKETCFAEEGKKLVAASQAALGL

For `CCCCC[C@H](O)/C=C/[C@H]1[C@H](O)CC(=O)[C@@H]1CCCCCCC(=O)O` [PGE1, prostaglandin E1], the “formation of mineralized nodules” value in data set [1] is reported as “increases the formation of mineralized nodules”. In addition, the “new bone formation; thickness and appositional rate of alveolar bone” value in data set [2] (local application, adult dogs (Marks 1988)) is “increases the thickness and appositional rate of alveolar bone”. The “alveolar bone height, cementum and periodontal ligaments” value in data set [2] (local delivery, premolars and molars of adult dogs (Marks 1994)) was “increases alveolar bone height and regenerates cementum and periodontal ligaments”.

Turning to `C[C@H]1c2cccc(O)c2C(=O)C2=C(O)[C@]3(O)C(=O)C(C(N)=O)=C(O)[C@@H](N(C)C)[C@@H]3[C@@H](O)[C@@H]21` [Doxycycline], the “Mean Changes in Pocket Depths Using Patient as Inference” value (“Mean Changes … as Inference” for short) is given as 1.96* mm in data set [3] (setting [7]); 2.63* mm in data set [3] (setting [8]); 3.04* mm in data set [3] (setting [9]); 3.57* mm in data set [3] (setting [10]); 4.23* mm in data set [3] (setting [11]); 4.13 mm in data set [3] (setting [12]). Further, the “Mean Changes … as Inference” value in data set [3] (setting [13]) was 0.84 mm; in data set [3] (setting [14]), 0.42 mm; in data set [3] (setting [15]), 0.79 mm; in data set [3] (setting [16]), 1.42 mm; in data set [3] (setting [17]) it was 1.71 mm; in data set [3] (setting [18]), 2.86 mm. The “Mean Changes … as Inference” value in data set [3] (setting [19]) was 3.28 mm; in data set [3] (setting [20]) it was −0.22* mm. The “improvement in pocket depth (from the Figures)” value in data set [3] (pocket depth originally 10 mm, Week 52) is reported as 3 mm. The “reduction in depth (from the Figures)” value in data set [3] (pocket depth originally 10 mm, at 6 weeks) is ~5 mm.

With `CCCCC(C)(O)C/C=C/[C@H]1[C@H](O)CC(=O)[C@@H]1CCCCCCC(=O)O` (mixture of isomers) [Misoprostolic acid], the albumin bound entry in data set [4] is given as “approximately 85%”. Also, the half-life entry in data set [5] is given as “about 30 minutes”.

`CCCC[C@@](C)(O)C/C=C/[C@H]1[C@H](O)CC(=O)[C@@H]1CCCCCCC(=O)OC` (racemic) [Misoprostol, methyl-(11α, 13E)-11,16-dihydroxy-16-methyl-9-oxoprost-13-en-1-oate]: the “Mean Changes … as Inference” value is on record as 1.57 mm in data set [3] (setting [7]); 2.13 mm in data set [3] (setting [8]); 2.68 mm in data set [3] (setting [9]); 2.84 mm in data set [3] (setting [10]); 4.46* mm in data set [3] (setting [11]); 4.70 mm in data set [3] (setting [12]). Besides, the “Mean Changes … as Inference” value in data set [3] (setting [13]) is listed as 0.58 mm; in data set [3] (setting [14]), 1.76*† mm; in data set [3] (setting [15]), 2.49† mm; in data set [3] (setting [16]), 3.28*† mm; in data set [3] (setting [17]) it was 3.90*† mm; in data set [3] (setting [18]), 5.06*† mm. Further, the results for the “Mean Changes … as Inference” value in data set [3] (setting [19]) and in data set [3] (setting [20]) were 4.75 mm and 0.75*† mm, respectively. Besides, the “improvements in pocket depths compared to scaling, root planning and curettage alone” value in data set [3] (52 weeks post-treatment) is “statistically significant improvements”. Further, in data set [3] (52 weeks post-treatment, Wilcoxon rank-sum), the “mean changes in pocket depths compared to doxycycline+placebo” value is “statistically significantly greater improvements”. For the same compound, the tooth mobility entry in data set [3] (along with the decreases in pocket depth) is “decreases in tooth mobility”. In data set [3] (in vivo), the “patients requiring surgical intervention to stop the progression of the disease” value is reported as “none of the patients”. Moreover, the “reduction in pocket depth” value in data set [3] (original pocket depth 10 mm or greater, after 6 weeks) was 40-50%. Also, the storage stability result is “stable for at least a year” in data set [6] (dissolved in absolute alcohol (ethanol) and frozen); “a couple years” in data set [6] (dry state, stabilized with hydroxypropyl methyl cellulose). In addition, the stability of creams result in data set [6] (in the presence of water, breaks down to prostaglandin A) was “creams last approximately only one week”.
